Laboratory results as given in patent US6605308B2, “Pathogen management system” (Tomoco2 Equipment Company, priority 2001, dated 2003).
Read-outs that look alike come from different tables or passages of the source.

What was measured:
[1] = test system: Listeria monocytogenes; conditions: 8% TSP, 10 minutes, room temperature, colony grown on a surface with biofilm; cited from earlier work
[2] = test system: Salmonella; test: Salmonella in chiller water, plant test at Springdale, Ark.
[3] = test system: microorganisms; conditions: versus OCl-; cited from earlier work
[4] = test system: E-Coli; test: E-Coli on carcass after IOBW, Natchitoches, La.; conditions: standard nozzles, 13 seconds of wash time
Experimental: More tests are being conducted at a facility in Natchitoches, La. The project began by adding hypochlorous acid to the IOBW on-line. Tests were performed on the carcass before and after the IOBW. APC, Coliform and E-Coli test were run on the carcass. Average APC of the carcass entering the IOBW was 90,559 cfu/ml, Coliform of 2,103 cfu/ml and E-Coli of 1,429 cfu/ml. After adding hypochlorous acid to the existing IOBW, using standard nozzles, a major reduction in the numbers was found. The average APC was 12,792, Coliform 664 cfu/ml and E. coli 383 cfu/ml. This was only with 13 seconds of wash time.

[5] = test system: Coliform; test: Coliform on carcass after IOBW, Natchitoches, La.; conditions: standard nozzles, 13 seconds of wash time
[6] = test system: pathogens; test: Initial one-control-point testing at the immersion chillers, chiller water samples
Source text: In a preferred embodiment, a hypochlorous acid stream is used in more than one discrete location along a poultry processing line, although preliminary investigations for pathogens began as a one-control point approach in the process at the immersion chillers.
Samples of chiller water determined that it was sterilized with hypochlorous acid. It appeared that the disinfecting capabilities were maximized at the chiller.

[7] = cited from earlier work
[8] = test system: E-Coli; test: E-Coli testing at immersion chiller, plant test at Dallas, Tex.
[9] = test system: APC; test: APC on carcass after IOBW, Natchitoches, La.; conditions: standard nozzles, 13 seconds of wash time
[10] = test system: E-Coli; test: E-Coli testing at chiller system, Natchitoches, La.
[11] = December, 121 samples so far, chiller plus pick/kill room system
[12] = July, 254 samples, system on chiller
[13] = November, 251 samples, chiller plus pick/kill room system

SMILES: O=P([O-])([O-])[O-].[Na+].[Na+].[Na+] [TSP, Trisodium phosphate]
- reduction of bacterial numbers [1]: 1 log10

SMILES: [Ca+2].[O-]Cl.[O-]Cl [calcium hypochlorite solution, calcium hypochlorite]
- reduction in Salmonella [2]: 40%
- samples returned with a positive result of Salmonella ([2]; of 83 samples, four weeks, injected into chiller recirculation lines without pH control): 16 samples

SMILES: OCl [hypochlorous acid]
- effectiveness for killing microorganisms relative to OCl- [3]: about 80 times
- average E. coli [4]: 383 cfu/ml
- samples returned positive (Salmonella) ([2]; of 41 samples over three weeks, 98% hypochlorous acid solution injected into chiller recirculation lines): 2 samples
- average Coliform [5]: 664 cfu/ml
- state of chiller water samples [6]: sterilized
- Percent HOCl ([7]; pH 5.0, 0 °C): 99.85%
- Percent HOCl ([7]; pH 5.0, 5 °C): 99.83%
- Percent HOCl ([7]; pH 5.0, 10 °C): 99.80%
- Percent HOCl ([7]; pH 5.0, 15 °C): 99.77%
- Percent HOCl ([7]; pH 5.0, 20 °C): 99.74%
- Percent HOCl ([7]; pH 5.0, 25 °C): 99.71%
- Percent HOCl ([7]; pH 5.0, 30 °C): 99.68%
- Percent HOCl ([7]; pH 5.5, 0 °C): 99.53%
- Percent HOCl ([7]; pH 5.5, 5 °C): 99.75%
- Percent HOCl ([7]; pH 5.5, 10 °C): 99.36%
- Percent HOCl ([7]; pH 5.5, 15 °C): 99.27%
- Percent HOCl ([7]; pH 5.5, 20 °C): 99.18%
- Percent HOCl ([7]; pH 5.5, 25 °C): 99.09%
- Percent HOCl ([7]; pH 5.5, 30 °C): 99.01%
- Percent HOCl ([7]; pH 6.0, 0 °C): 98.53%
- Percent HOCl ([7]; pH 6.0, 5 °C): 98.28%
- Percent HOCl ([7]; pH 6.0, 10 °C): 98.01%
- Percent HOCl ([7]; pH 6.0, 15 °C): 97.73%
- Percent HOCl ([7]; pH 6.0, 20 °C): 97.45%
- Percent HOCl ([7]; pH 6.0, 25 °C): 97.18%
- Percent HOCl ([7]; pH 6.0, 30 °C): 96.92%
- Percent HOCl ([7]; pH 7.0, 0 °C): 87.05%
- Percent HOCl ([7]; pH 7.0, 5 °C): 85.08%
- Percent HOCl ([7]; pH 7.0, 10 °C): 83.11%
- Percent HOCl ([7]; pH 7.0, 15 °C): 81.17%
- Percent HOCl ([7]; pH 7.0, 20 °C): 79.23%
- Percent HOCl ([7]; pH 7.0, 25 °C): 77.53%
- Percent HOCl ([7]; pH 7.0, 30 °C): 75.90%
- Percent HOCl ([7]; pH 8.0, 0 °C): 40.19%
- Percent HOCl ([7]; pH 8.0, 5 °C): 36.32%
- Percent HOCl ([7]; pH 8.0, 10 °C): 32.98%
- Percent HOCl ([7]; pH 8.0, 15 °C): 30.12%
- Percent HOCl ([7]; pH 8.0, 20 °C): 27.62%
- Percent HOCl ([7]; pH 8.0, 25 °C): 25.65%
- Percent HOCl ([7]; pH 8.0, 30 °C): 23.95%
- Percent HOCl ([7]; pH 9.0, 0 °C): 6.30%
- Percent HOCl ([7]; pH 9.0, 5 °C): 5.40%
- Percent HOCl ([7]; pH 9.0, 10 °C): 4.69%
- Percent HOCl ([7]; pH 9.0, 15 °C): 4.13%
- Percent HOCl ([7]; pH 9.0, 20 °C): 3.68%
- Percent HOCl ([7]; pH 9.0, 25 °C): 3.34%
- Percent HOCl ([7]; pH 9.0, 30 °C): 3.05%
- Percent HOCl ([7]; pH 10.0, 0 °C): 0.67%
- Percent HOCl ([7]; pH 10.0, 5 °C): 0.57%
- Percent HOCl ([7]; pH 10.0, 10 °C): 0.49%
- Percent HOCl ([7]; pH 10.0, 15 °C): 0.43%
- Percent HOCl ([7]; pH 10.0, 20 °C): 0.38%
- Percent HOCl ([7]; pH 10.0, 25 °C): 0.34%
- Percent HOCl ([7]; pH 10.0, 30 °C): 0.31%
- Percent HOCl ([7]; pH 11.0, 0 °C): 0.067%
- Percent HOCl ([7]; pH 11.0, 5 °C): 0.057%
- Percent HOCl ([7]; pH 11.0, 10 °C): 0.049%
- Percent HOCl ([7]; pH 11.0, 15 °C): 0.043%
- Percent HOCl ([7]; pH 11.0, 20 °C): 0.038%
- Percent HOCl ([7]; pH 11.0, 25 °C): 0.034%
- Percent HOCl ([7]; pH 11.0, 30 °C): 0.031%
- E-Coli detection rate ([8]; April): 14%
- samples below 100 cfu/ml ([8]; April): 99%
- samples with E-Coli detected ([8]; April, of 264 samples): 37 samples
- E-Coli detection rate ([8]; March): 28%
- samples below 100 cfu/ml ([8]; March): 83%
- samples with E-Coli detected ([8]; March, of 264 samples): 76 samples
- E-Coli detection rate ([8]; May): 8%
- samples below 100 cfu/ml ([8]; May): 100%
- samples with E-Coli detected ([8]; May, of 276 samples): 23 samples
- average APC [9]: 12,792 cfu/ml
- samples over 10 cfu/ml [10, 11]: 28%
- samples over 100 cfu/ml (number) [10, 11]: two
- samples over 10 cfu/ml [10, 12]: 38%
- samples over 100 cfu/ml [10, 12]: 5%
- samples over 10 cfu/ml [10, 13]: 20%
- samples over 100 cfu/ml (number) [10, 13]: one
